Experimental findings from paper PMC8654043 (Chemical Science, 2021) are described below.

One experiment has as its target T1, caspase-9 (Homo sapiens, UniProt P55211).
T1 sequence (P55211 1-416): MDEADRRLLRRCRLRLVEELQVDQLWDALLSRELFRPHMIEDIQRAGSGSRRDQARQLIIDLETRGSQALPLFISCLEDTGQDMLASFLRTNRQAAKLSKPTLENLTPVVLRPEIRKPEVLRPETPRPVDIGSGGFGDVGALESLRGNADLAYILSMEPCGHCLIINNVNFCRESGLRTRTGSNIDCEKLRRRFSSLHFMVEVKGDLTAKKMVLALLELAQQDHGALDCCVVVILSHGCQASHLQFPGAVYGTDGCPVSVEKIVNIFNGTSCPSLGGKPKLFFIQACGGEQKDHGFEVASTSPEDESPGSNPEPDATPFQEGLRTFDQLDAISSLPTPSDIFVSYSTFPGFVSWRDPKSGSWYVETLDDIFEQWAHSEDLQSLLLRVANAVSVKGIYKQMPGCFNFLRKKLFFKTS
It is filed as biochemical.

For a further experiment, the target named is caspase-8 (Homo sapiens, UniProt Q14790). It is filed as biochemical.
caspase-8, sequence (Q14790 217-374): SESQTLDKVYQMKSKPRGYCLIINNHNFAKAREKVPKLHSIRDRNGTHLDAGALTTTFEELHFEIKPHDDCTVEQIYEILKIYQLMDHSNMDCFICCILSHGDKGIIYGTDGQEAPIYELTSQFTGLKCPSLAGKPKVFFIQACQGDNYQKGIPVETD
caspase-8, sequence (Q14790 385-479): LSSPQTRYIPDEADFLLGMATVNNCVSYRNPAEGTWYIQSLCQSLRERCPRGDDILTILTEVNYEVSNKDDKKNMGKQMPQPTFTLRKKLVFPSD

For orientation: IC50 means the point on the concentration scale where inhibition reaches its midpoint. A lower IC50 goes with greater potency in that assay.

Turning to `CC(C)[C@H](NC(=O)c1ccc2ccccc2n1)C(=O)N[C@@H](CC(=O)O)C(=O)COc1c(F)cccc1F` [Q-VD-OPh], the IC50 at caspase-9 was 310 nM; on caspase-8 it was 280 nM.
